{
  "source": "ChEMBL document CHEMBL5338724",
  "about": "“METTL3 from Target Validation to the First Small-Molecule Inhibitors: A Medicinal Chemistry Journey” (J Med Chem, 2023)",
  "key": {"[1]": {"biological_target": "T1, METTL3/METTL14 (Homo sapiens, UniProt Q86U44)", "T1 sequence (Q86U44 whole entry)": "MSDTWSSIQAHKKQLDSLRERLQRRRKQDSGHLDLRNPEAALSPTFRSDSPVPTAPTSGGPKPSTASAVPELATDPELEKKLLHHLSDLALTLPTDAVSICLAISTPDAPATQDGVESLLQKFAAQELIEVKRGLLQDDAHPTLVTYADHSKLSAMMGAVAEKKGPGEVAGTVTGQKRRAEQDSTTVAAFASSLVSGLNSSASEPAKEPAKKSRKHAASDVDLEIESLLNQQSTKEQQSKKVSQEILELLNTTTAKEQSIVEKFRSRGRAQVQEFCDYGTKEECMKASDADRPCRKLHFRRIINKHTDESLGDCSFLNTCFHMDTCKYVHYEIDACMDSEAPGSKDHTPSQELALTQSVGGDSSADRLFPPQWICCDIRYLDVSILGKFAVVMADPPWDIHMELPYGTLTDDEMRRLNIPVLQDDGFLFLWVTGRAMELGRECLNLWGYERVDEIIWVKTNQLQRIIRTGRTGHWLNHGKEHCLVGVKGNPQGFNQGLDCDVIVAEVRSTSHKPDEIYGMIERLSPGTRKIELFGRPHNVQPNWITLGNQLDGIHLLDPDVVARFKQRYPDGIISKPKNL", "T1 sequence (Q9HCE5 whole entry, further chain)": "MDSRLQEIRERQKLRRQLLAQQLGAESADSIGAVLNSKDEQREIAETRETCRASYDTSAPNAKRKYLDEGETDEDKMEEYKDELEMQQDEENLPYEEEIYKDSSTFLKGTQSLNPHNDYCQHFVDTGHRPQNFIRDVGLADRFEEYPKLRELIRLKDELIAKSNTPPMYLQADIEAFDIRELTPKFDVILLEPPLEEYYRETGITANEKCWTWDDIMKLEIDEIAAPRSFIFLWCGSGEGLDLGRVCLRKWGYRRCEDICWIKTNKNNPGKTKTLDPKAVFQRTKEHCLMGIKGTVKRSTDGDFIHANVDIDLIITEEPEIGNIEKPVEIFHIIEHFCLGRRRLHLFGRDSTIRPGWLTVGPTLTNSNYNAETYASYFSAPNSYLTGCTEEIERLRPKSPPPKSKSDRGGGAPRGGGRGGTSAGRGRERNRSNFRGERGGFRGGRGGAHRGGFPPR", "test": "Inhibition of full-length His-tagged METTL3/full length FLAG-tagged METTL14 (unknown origin) expressed in baculovirus expression system using synthetic RNA 5'P-uacacucgaucuggacuaaagcugcuc-3' and SAM as substrate preincubated for 10 mins followed by substrate addition and measured after 60 mins by RF/MS analysis"}, "[2]": {"system": "MOLM-13", "test": "Antiproliferative activity against human MOLM-13 cells assessed as inhibition of cell proliferation and measured after 7 days by CellTiter-Glo assay", "format": "functional, cell-based", "conditions": "MOLM-13, 168 h"}, "[3]": {"system": "Caov-3 cell line", "test": "Antiproliferative activity against human Caov-3 cell line assessed as inhibition of cell proliferation and measured after 7 days by CellTiter-Glo assay", "format": "functional, cell-based", "conditions": "Caov-3, 168 h"}, "[4]": {"biological_target": "T1, METTL3/METTL14", "test": "Inhibition of METTL3/METTL14 (unknown origin)", "format": "protein-complex assay"}, "[5]": {"system": "MOLM-13", "test": "Antiproliferative activity against human MOLM-13 cells assessed as decrease cell proliferation", "format": "functional, cell-based"}, "[6]": {"biological_target": "T2, N6-adenosine-methyltransferase catalytic subunit (Homo sapiens, UniProt Q86U44)", "T2 sequence (Q86U44 whole entry)": "as the sequence (Q86U44 whole entry) above", "test": "Inhibition of METTL3 in human MOLM-13 cells assessed as decrease in cellular m6A mRNA level incubated for 24 hrs by NanoDrop spectrophotometer based LC-MS/MS analysis", "format": "cell-based"}, "[7]": {"system": "MOLM-13", "test": "Antiproliferative activity against human MOLM-13 cells assessed as inhibition of cell proliferation incubated for 48 hrs by Cell Titer-Glo reagent assay", "format": "functional, cell-based", "conditions": "MOLM-13, 48 h"}, "[8]": {"biological_target": "T1, METTL3/METTL14", "test": "Inhibition of METTL3/METTL14 (unknown origin) using biotinylated RNA (UCUGGACUAAA-biotin) and 3H-SAM as substrate preincubated for 5 mins followed by substrate addition and measured after 30 mins by scintillation counter analysis", "format": "protein-complex assay"}, "[9]": {"system": "MOLM-13", "test": "Antiproliferative activity against human MOLM-13 cells assessed as inhibition of cell proliferation incubated for 96 hrs by Cell Titer-Glo reagent assay", "format": "functional, cell-based", "conditions": "MOLM-13, 96 h"}, "[10]": {"system": "Caov-3 cell line", "test": "Antiproliferative activity against human Caov-3 cell line assessed as inhibition of cell proliferation incubated for 120 hrs by CellTiter-Glo assay", "format": "functional, cell-based", "conditions": "Caov-3, 120 h"}, "[11]": {"system": "Kasumi 1", "test": "Antiproliferative activity against human Kasumi 1 cells assessed as inhibition of cell proliferation incubated for 120 hrs by CellTiter-Glo assay", "format": "functional, cell-based", "conditions": "Kasumi 1, 120 h"}, "[12]": {"biological_target": "METTL3/METTL14 (Homo sapiens) (UniProt Q86U44+Q9HCE5)", "test": "Inhibition of METTL3/METTL14 (unknown origin) at 60 uM relative to control", "format": "protein-complex assay"}, "[13]": {"biological_target": "T1, METTL3/METTL14", "test": "Inhibition of METTL3/METTL14 (unknown origin) using RNA 5'-GGACUGGACUGGACU-3' as substrate incubated for 2 hrs by LC-MS/MS analysis", "format": "protein-complex assay"}, "[14]": {"biological_target": "T2, N6-adenosine-methyltransferase catalytic subunit", "description": "Binding affinity to METTL3 (unknown origin) assessed as dissociation constant by SPR analysis"}},
  "data": [
    {"smiles": "Clc1cc(-c2cn(Cc3cn4cc(CNCC5CCC5)ccc4n3)nn2)c2cn[nH]c2c1", "values": [
      {"measurement": "IC50", "setting": "[1]", "value": 4.35, "unit": "nM"}
    ]},
    {"smiles": "COc1ccc2[nH]ncc2c1-c1cn(Cc2cn3cc(CNCC4CCC4)ccc3n2)nn1", "values": [
      {"measurement": "IC50", "setting": "[2]", "value": 1170, "unit": "nM"},
      {"measurement": "IC50", "setting": "[3]", "value": 558, "unit": "nM"}
    ]},
    {"smiles": "O=C(NCc1cn2cc(CNCC34CC(F)(C3)C4)ccc2n1)c1cc(=O)n2ccccc2n1", "values": [
      {"measurement": "IC50", "setting": "[2]", "value": 657, "unit": "nM"},
      {"measurement": "IC50", "setting": "[3]", "value": 248, "unit": "nM"}
    ]},
    {"smiles": "O=C(O)c1ccccc1OCCc1cn(-c2ccc(-c3ccc(Cl)cc3)cc2)c2ccc(-c3ccc(F)cc3)cc12", "values": [
      {"measurement": "IC50", "setting": "[4]", "value": 3130, "unit": "nM"},
      {"measurement": "EC50", "setting": "[5]", "value": 26900, "unit": "nM"}
    ]},
    {"smiles": "CNc1ccc2ccc(CCc3cncc(-n4cc(-c5ccn(C)n5)c5c(N)ncnc54)c3)cc2n1", "values": [
      {"measurement": "IC50", "setting": "[6]", "value": "< 1000", "unit": "nM"},
      {"measurement": "IC50", "setting": "[7]", "value": "< 1000", "unit": "nM"},
      {"measurement": "IC50", "setting": "[8]", "value": "< 10", "unit": "nM"}
    ]},
    {"smiles": "CCc1cc(NCCOC)c2ccc(CCc3cncc(-n4cc(-c5ccn(C)n5)c5c(N)ncnc54)c3)cc2n1", "values": [
      {"measurement": "IC50", "setting": "[6]", "value": "< 1000", "unit": "nM"},
      {"measurement": "IC50", "setting": "[9]", "value": "< 10000", "unit": "nM"},
      {"measurement": "IC50", "setting": "[8]", "value": "< 10", "unit": "nM"}
    ]},
    {"smiles": "Nc1ncnc2c1c(Br)cn2[C@@H]1C[C@H](c2ccc3cc(CN4CCC5(CCC5)C4)[nH]c3c2)[C@@H](O)[C@H]1O", "note": "(single isomer, unassigned)", "values": [
      {"measurement": "IC50", "setting": "[10]", "value": 250, "unit": "nM"},
      {"measurement": "IC50", "setting": "[11]", "value": 950, "unit": "nM"}
    ]},
    {"smiles": "CCc1cc(N(C)CCOC)c2ccc(CCc3cncc(-n4cc(-c5ccn(C)n5)c5c(N)ncnc54)c3)cc2n1", "values": [
      {"measurement": "IC50", "setting": "[6]", "value": "< 1000", "unit": "nM"},
      {"measurement": "IC50", "setting": "[9]", "value": "< 10000", "unit": "nM"},
      {"measurement": "IC50", "setting": "[8]", "value": "< 10", "unit": "nM"}
    ]},
    {"smiles": "Cn1ccc(-c2cn([C@H]3C[C@H](O)[C@@H](COc4ccc5ccc(N6CCC6)nc5c4)O3)c3ncnc(N)c23)n1", "values": [
      {"measurement": "IC50", "setting": "[6]", "value": "< 1000", "unit": "nM"},
      {"measurement": "IC50", "setting": "[7]", "value": "< 10000", "unit": "nM"},
      {"measurement": "IC50", "setting": "[9]", "value": "< 10000", "unit": "nM"},
      {"measurement": "IC50", "setting": "[8]", "value": "< 10", "unit": "nM"}
    ]},
    {"smiles": "COC(=O)c1cccc(-c2cccc(N/N=C3\\C(=O)N(c4ccc(C)c(C)c4)N=C3C)c2O)c1", "values": [
      {"measurement": "inhibition", "setting": "[12]", "value": 23.7, "unit": "%"}
    ]},
    {"smiles": "Nc1ncnc2c1ccn2[C@@H]1C[C@H](c2ccc3cc(CN4CCC5(CCC5)C4)[nH]c3c2)[C@@H](O)[C@H]1O", "note": "(single isomer, unassigned)", "values": [
      {"measurement": "IC50", "setting": "[10]", "value": 250, "unit": "nM"},
      {"measurement": "IC50", "setting": "[11]", "value": 950, "unit": "nM"}
    ]},
    {"smiles": "CNc1ccc2ccc(OC[C@H]3O[C@@H](n4cc([C@@H]5CCCO5)c5c(N)ncnc54)[C@@H](F)[C@@H]3O)cc2n1", "values": [
      {"measurement": "IC50", "setting": "[6]", "value": "< 1000", "unit": "nM"},
      {"measurement": "IC50", "setting": "[7]", "value": "< 10000", "unit": "nM"},
      {"measurement": "IC50", "setting": "[9]", "value": "< 10000", "unit": "nM"},
      {"measurement": "IC50", "setting": "[8]", "value": "< 10", "unit": "nM"}
    ]},
    {"smiles": "COc1cc(-c2cn(Cc3cn4cc(CNCC5CCC5)ccc4n3)nn2)c2cn[nH]c2c1", "values": [
      {"measurement": "IC50", "setting": "[1]", "value": 3.63, "unit": "nM"}
    ]},
    {"smiles": "Cc1coc(-c2cn([C@@H]3O[C@H](COc4ccc5ccc(N6CCC6)nc5c4)[C@@H](O)[C@@H]3F)c3ncnc(N)c23)n1", "values": [
      {"measurement": "IC50", "setting": "[7]", "value": "< 10000", "unit": "nM"},
      {"measurement": "IC50", "setting": "[9]", "value": "< 10000", "unit": "nM"},
      {"measurement": "IC50", "setting": "[8]", "value": "< 10", "unit": "nM"}
    ]},
    {"smiles": "O=c1cc(-c2ccc(O)c(O)c2)oc2cc(O)cc(O)c12", "note": "[LUTEOLIN]", "values": [
      {"measurement": "IC50", "setting": "[13]", "value": 6230, "unit": "nM"}
    ]},
    {"smiles": "O=C(O)c1ccccc1OCCc1cn(-c2ccc(-c3ccccc3)cc2)c2ccc(-c3ccc(F)cc3)cc12", "values": [
      {"measurement": "IC50", "setting": "[4]", "value": 2950, "unit": "nM"},
      {"measurement": "EC50", "setting": "[5]", "value": 32500, "unit": "nM"}
    ]},
    {"smiles": "O=C(O)c1ccccc1OCCc1cn(C(c2ccccc2)c2ccccc2)c2ccc(-c3ccccc3)cc12", "values": [
      {"measurement": "IC50", "setting": "[4]", "value": 8630, "unit": "nM"}
    ]},
    {"smiles": "O=C(O)[C@H]1O[C@@H](Oc2cc3oc(-c4ccc(O)cc4)cc(=O)c3c(O)c2O)[C@H](O)[C@@H](O)[C@@H]1O", "note": "[SCUTELLARIN]", "values": [
      {"measurement": "IC50", "setting": "[13]", "value": 19200, "unit": "nM"}
    ]},
    {"smiles": "O=C(O)c1ccccc1OCCc1cn(-c2cccc(-c3ccccc3)c2)c2ccc(-c3ccc(F)cc3)cc12", "values": [
      {"measurement": "IC50", "setting": "[4]", "value": 2740, "unit": "nM"},
      {"measurement": "EC50", "setting": "[5]", "value": 29900, "unit": "nM"}
    ]},
    {"smiles": "COc1cc2c(cc1Cc1cccc(Cl)c1F)c(=O)c(C(=O)O)cn2[C@H](CO)C(C)C", "values": [
      {"measurement": "Kd", "setting": "[14]", "value": 4.79, "unit": "nM"}
    ]}
  ]
}
